According to ChEMBL document CHEMBL1201862, “PubChem BioAssay data set” (2004):
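In this assay, cells in 96-well plates receive the compound at five concentrations for 48 hours. Endpoints are linearly interpolated between the surrounding concentrations. Here, GI50 denotes the concentration required for 50% inhibition of growth.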 Calls of active or inactive are those of the source. Cut-off read from the data, not from the text of the source: active = GI50 up to about 1.1 µM and inactive = higher.

Key:
Experiment in all cases: NCI-60 cell line screen, 48 h
SNB-19 = system: SNB-19
RPMI-8226 = system: RPMI-8226
SK-MEL-2 = system: SK-MEL-2
MDA-N = system: MDA-N
SR = system: SR
HOP-62 = system: HOP-62
HCT-15 = system: HCT-15
BT-549 = system: BT-549
MCF7 = system: MCF7
CCRF-CEM = system: CCRF-CEM
SF-539 = system: SF-539
Malme-3M = system: Malme-3M
Hs-578T = system: Hs-578T
ACHN = system: ACHN
EKVX = system: EKVX
LOX IMVI = system: LOX IMVI
OVCAR-4 = system: OVCAR-4
RXF 393 = system: RXF 393
HOP-92 = system: HOP-92

Row | Compound | GI50 (SNB-19) | GI50 (RPMI-8226) | GI50 (SK-MEL-2) | GI50 (MDA-N) | GI50 (SR) | GI50 (HOP-62) | GI50 (HCT-15) [µM] | GI50 (BT-549) | GI50 (MCF7) | GI50 (CCRF-CEM) | GI50 (SF-539) | GI50 (Malme-3M) | GI50 (Hs-578T) | GI50 (ACHN) | GI50 (EKVX) | GI50 (LOX IMVI) | GI50 (OVCAR-4) | GI50 (RXF 393) | GI50 (HOP-92)
1 | COc1ccc(N[S+]([O-])CCCc2ccccc2)cc1 (stereo not drawn) | > 100 µM (inactive) | 70 µM (inactive) | > 100 µM (inactive) | > 100 µM (inactive) | 88.5 µM (inactive) | > 100 µM (inactive) | 64 | 4.16 µM (inactive) | 81.1 µM (inactive) | > 100 µM (inactive) | > 100 µM (inactive) | > 100 µM (inactive) | > 100 µM (inactive) | > 100 µM (inactive) | > 100 µM (inactive) | > 100 µM (inactive) | > 100 µM (inactive) |  | 
2 | O=C(O)c1ccc(N2C=[N+]3C(=Nc4ccccc43)C2)cc1 | > 100 µM (inactive) | > 100 µM (inactive) | > 100 µM (inactive) | > 100 µM (inactive) |  | > 100 µM (inactive) | > 100 | > 100 µM (inactive) | > 100 µM (inactive) | > 100 µM (inactive) |  | 0.475 µM (active) | > 100 µM (inactive) | > 100 µM (inactive) | > 100 µM (inactive) | > 100 µM (inactive) | > 100 µM (inactive) | > 100 µM (inactive) | 
3 | C=CC(O)(CBr)CCC(Br)C(C)(C)Cl (stereo not drawn) | > 10 µM (inactive) | > 10 µM (inactive) | > 10 µM (inactive) | > 10 µM (inactive) |  | > 10 µM (inactive) | > 10 | > 10 µM (inactive) | > 10 µM (inactive) | > 10 µM (inactive) | > 10 µM (inactive) | > 10 µM (inactive) | > 10 µM (inactive) | > 10 µM (inactive) | > 10 µM (inactive) |  | > 10 µM (inactive) | > 10 µM (inactive) | > 10 µM (inactive)
4 | COC1=C(OC)C(=O)C(Cc2c(C)nc3sccn23)=C(C)C1=O | 16 µM (inactive) | 2.48 µM (inactive) | 16.6 µM (inactive) | 12.7 µM (inactive) | 14.5 µM (inactive) | 17.5 µM (inactive) | 16.5 | 16.1 µM (inactive) | 20.1 µM (inactive) | 3.56 µM (inactive) | 16.5 µM (inactive) | 10.9 µM (inactive) | 19.3 µM (inactive) | 14.9 µM (inactive) | 14.1 µM (inactive) | 11.7 µM (inactive) | 2.92 µM (inactive) | 22.8 µM (inactive) | 
5 | CC12CC(C#N)(C#N)C(C#N)(CO1)C(=N)O2 (stereo not drawn) | > 100 µM (inactive) |  | > 100 µM (inactive) | > 100 µM (inactive) |  |  | 40.6 | > 100 µM (inactive) | > 100 µM (inactive) | 26.9 µM (inactive) | > 100 µM (inactive) | 24.2 µM (inactive) | 27.7 µM (inactive) | > 100 µM (inactive) | > 100 µM (inactive) | 49.3 µM (inactive) | > 100 µM (inactive) | 59.7 µM (inactive) | 52.7 µM (inactive)
6 | CN(C)c1ccc(/N=N\c2cccc3ccoc23)cc1 | > 100 µM (inactive) | 52.2 µM (inactive) | > 100 µM (inactive) | > 94.4 µM (inactive) | 23.3 µM (inactive) | > 100 µM (inactive) | 45.2 | > 95.7 µM (inactive) |  | > 100 µM (inactive) | > 100 µM (inactive) | > 100 µM (inactive) | > 100 µM (inactive) | > 100 µM (inactive) | 26.9 µM (inactive) | > 100 µM (inactive) | 29.4 µM (inactive) | > 80.9 µM (inactive) | 70.5 µM (inactive)
7 | O=C(Nc1nnc(-c2ccccc2)o1)C(SC(=S)N1CCOCC1)c1ccccc1 (stereo not drawn) | 40.1 µM (inactive) | 22.6 µM (inactive) | 16.8 µM (inactive) | 26.3 µM (inactive) | 9.75 µM (inactive) | 24.1 µM (inactive) | 5.43 | 22.5 µM (inactive) | 27.1 µM (inactive) | 5.75 µM (inactive) | 33.3 µM (inactive) | 55.6 µM (inactive) | 86.3 µM (inactive) | 20.9 µM (inactive) | 15.3 µM (inactive) | 16.3 µM (inactive) | 34 µM (inactive) | 41.9 µM (inactive) | 
8 | CCOC(=O)/C=C(\C(=O)OCC)n1cc(C)c(=O)n(Cc2cnnn2COCCOC(C)=O)c1=O | 35.2 µM (inactive) | 6.24 µM (inactive) | 19.1 µM (inactive) | 19.9 µM (inactive) |  | 22.2 µM (inactive) | 3.44 | 5.52 µM (inactive) | 5.31 µM (inactive) | 1.75 µM (inactive) | 2.2 µM (inactive) | 1.48 µM (inactive) | 14.3 µM (inactive) | 2.67 µM (inactive) | 11.9 µM (inactive) | 5.97 µM (inactive) | 15.6 µM (inactive) | 3.28 µM (inactive) | 1.92 µM (inactive)
9 | CN(C)CCNc1ncnc2nc(-c3ccccc3)c(-c3ccccc3)nc12 |  |  | > 100 µM (inactive) | > 100 µM (inactive) |  | > 100 µM (inactive) |  | > 100 µM (inactive) | 57.5 µM (inactive) | > 100 µM (inactive) | > 100 µM (inactive) | > 100 µM (inactive) | > 100 µM (inactive) |  | > 100 µM (inactive) | > 100 µM (inactive) |  | > 100 µM (inactive) | 
10 | CSc1c(C#N)c(S)[nH]c(=O)c1C#N | 58.5 µM (inactive) | 3.89 µM (inactive) | 13.7 µM (inactive) | 24.4 µM (inactive) | 51.2 µM (inactive) |  | 44.4 | 40.5 µM (inactive) | 37.9 µM (inactive) | 55.5 µM (inactive) | > 100 µM (inactive) | 7.14 µM (inactive) | 24.2 µM (inactive) |  | 29.6 µM (inactive) | 37.1 µM (inactive) | 10.4 µM (inactive) | 26.1 µM (inactive) | 
11 | O=C(CCc1ccc(O)cc1)NCCCNC(=O)CCc1ccc(O)cc1 | > 100 µM (inactive) | > 100 µM (inactive) | > 100 µM (inactive) | > 100 µM (inactive) | > 100 µM (inactive) | > 100 µM (inactive) | > 100 | > 100 µM (inactive) | > 100 µM (inactive) | > 100 µM (inactive) | > 100 µM (inactive) | > 100 µM (inactive) | > 100 µM (inactive) | > 100 µM (inactive) |  | > 100 µM (inactive) | > 100 µM (inactive) | > 100 µM (inactive) | 
12 | O=c1/c(=C/c2ccc([N+](=O)[O-])o2)sc2n1[C@@H](c1ccc(Cl)cc1)C=C(c1cc(F)c(Cl)cc1Cl)N=2 | 15.9 µM (inactive) | 5.16 µM (inactive) | 5.04 µM (inactive) | 4.65 µM (inactive) |  | 11.5 µM (inactive) | 8.18 | 15.1 µM (inactive) | 13.3 µM (inactive) | 4.83 µM (inactive) | 22.4 µM (inactive) | 17.9 µM (inactive) | 56.5 µM (inactive) | 16.3 µM (inactive) |  | 16 µM (inactive) | 16.6 µM (inactive) | 13.2 µM (inactive) | 12.9 µM (inactive)
13 | CC(C)(C)OC(=O)N1[C@@H]2Cc3ccc(N)cc3[C@@]1(C)c1ccccc12 | 44.1 µM (inactive) | 21.8 µM (inactive) | 20 µM (inactive) | 21.2 µM (inactive) |  | 35 µM (inactive) | 11.1 | 18.7 µM (inactive) | 34.1 µM (inactive) | 25.8 µM (inactive) |  | 29.9 µM (inactive) | 36.6 µM (inactive) | 36.8 µM (inactive) | 38.3 µM (inactive) | 19.6 µM (inactive) | 29.8 µM (inactive) | 15 µM (inactive) | 23.9 µM (inactive)
14 | CC(C)Oc1c(C2(c3ccccc3)SCCCS2)c(=O)c1=O | > 100 µM (inactive) |  | > 100 µM (inactive) | > 100 µM (inactive) |  | > 100 µM (inactive) | > 100 | > 100 µM (inactive) | > 100 µM (inactive) | 45.6 µM (inactive) | > 100 µM (inactive) |  | 84.7 µM (inactive) | > 100 µM (inactive) | > 100 µM (inactive) | > 100 µM (inactive) | > 100 µM (inactive) | > 100 µM (inactive) | > 100 µM (inactive)
15 | Clc1cc2nn(C3CCCCO3)nc2cc1Cl (stereo not drawn) | > 100 µM (inactive) |  | > 100 µM (inactive) | > 100 µM (inactive) | > 100 µM (inactive) | > 100 µM (inactive) | > 100 | > 100 µM (inactive) | > 100 µM (inactive) | > 100 µM (inactive) | > 100 µM (inactive) | > 100 µM (inactive) | > 100 µM (inactive) | > 100 µM (inactive) | > 100 µM (inactive) |  | > 100 µM (inactive) | > 100 µM (inactive) | 
16 | O=c1cc(NNc2cccc(F)c2)[nH]c(=O)[nH]1 | > 100 µM (inactive) | 16.7 µM (inactive) | 40.5 µM (inactive) | 80.2 µM (inactive) | 10.2 µM (inactive) | > 100 µM (inactive) | 16.9 | > 100 µM (inactive) |  | 22.4 µM (inactive) | 38.9 µM (inactive) | 19.4 µM (inactive) | 83 µM (inactive) | 35.6 µM (inactive) |  | 18 µM (inactive) | > 100 µM (inactive) | 20.5 µM (inactive) | 16.3 µM (inactive)
17 | COc1ccc(/N=N/c2c(C)c(C#N)c(=S)n(C3OC(CO)C(O)C(O)C3O)c2-c2ccccc2)cc1 (stereo not drawn) | 41.3 µM (inactive) | 36.1 µM (inactive) | 33 µM (inactive) | 37.4 µM (inactive) | 32.1 µM (inactive) | 37.9 µM (inactive) | 34 | 38 µM (inactive) | 38.3 µM (inactive) | 20 µM (inactive) | 42.7 µM (inactive) | 30.6 µM (inactive) | 21.5 µM (inactive) | 26 µM (inactive) |  | 27.8 µM (inactive) | 31.9 µM (inactive) | 28 µM (inactive) | 
